Legend:
murine DC cells = assay: LPS-induced IL-12, TNF-α and IL-10 production by bone marrow derived dendritic cells; assay type: cell-based, murine (C57BL/7); conditions: murine BM-derived DC; compound 0.01-100 μg/ml 1 h 30 before LPS 1 μg/ml; 20 h; ELISA
Method: Femora and tibiae from two male C57BL/7, 6 week-old (Charles River Laboratories France), were removed, stripped of muscles and tendons, and desinfected with 70% ethanol. Both ends of each bone were cut and the marrow was flushed with HBSS (Gibco BRL) using a syringe with a 26-gauge needle. The resulting cell suspension was centrifuged for 5 min. at 500 g and washed in HBSS. The cells were resuspended at 3×10^5 cells/ml in RPMI-1640 (Gibco BRL) supplemented with 2 mM L-glutamin (Sigma), 100 U/ml penicillin (Sigma), 100 μg/ml streptomycin (Sigma), 50 μM β-mercaptoethanol (Sigma), 10% heat-inactivated FCS (Sigma) and 15 ng/ml murine rGM-CSF (R&D).
To generate bone marrow (BM) derived dendritic cells (DC), BM leukocytes were cultured in 100-mm bacteriological petri dishes (Falcon 1029) for 8 days at 37° C. in 5% CO2. On day 0, 10 ml of cell suspension were seeded per dish. On day 3, another 10 ml of freshly prepared medium were added to each plate and on day 6, 9 ml of top medium were carefully removed from each plate and replaced by 10 ml of fresh medium.
Non-adherent cells of the 8-day old BM cell cultures were collected, centrifuged for 5 min. at 500 g, and resuspended at 1.25×10^6 cells/ml in supplemented RPMI containing 10 ng/ml GM-CSF. The cells were then seeded in 24-well tissue culture plates ([…]) and incubated for 1 h 30 at 37° C. in 5% CO2 in the absence or presence of OM-294-DP or OM-197-MP-AC (0.01-100 μg/ml/200 μl/well). LPS (E.coli O26:B6, Sigma), was then added at 1 μg/ml, and the plates were further incubated. After 20 h incubation, the supernatants were collected for analysis of cytokines. IL-12p70, IL-10, and TNF-α concentrations in DC culture supernatants were measured by ELISA using OptEIA matched Ab pairs from BD Pharmingen. Supersignal ELISA Pico chemiluminescent peroxidase substrate (BD Pharmingen) was used for the detection by luminometry (Wallac 1420 multilabel counter Victor-2). The assays were performed according to manufacturer's instructions.
FIG. 1: IL-12 (left panels) and IL-10 (right panels) secretion by murine DC stimulated by LPS (1 μg/ml) alone, or first during 90 minutes with the indicated concentrations (in μg/ml) of OM-197-MP-AC (A) or 294-DP (B), and then by LPS (1 μg/ml) for 20 additional hours. The supernatants were collected from the DC cultures and analyzed by ELISA for the presence of IL-12 and IL-10.
FIG. 2: TNF-α secretion by murine DC stimulated by LPS (1 μg/ml) alone, or first during 90 minutes with the indicated concentrations (in μg/ml) of 294-DP (294), or of OM-197-MP-AC (197), and then by LPS (1 μg/ml) for 20 additional hours. The supernatants were collected from the DC cultures and analyzed by ELISA for the presence of TNF-α.

[1] = tested on: Limulus Amoebocyte Lysate; assay: Limulus Amoebocyte Lysate chromogenic test (LAL endotoxicity); assay type: biochemical
Method: Endotoxicity was determined first for OM-197-MP-AC and for OM-294-DP by the Limulus Amoebocyte Lysate chromogenic test (Chromogenic-LAL of Bio-Whittaker, kit n° 50-65OU).
The enzymatic reaction is carried out at 37° C. and the formation of the chromogen over time is measured at 405 nm. The time necessary to reach 0.2 units of D.O. is recorded and the endotoxic activity calculated in relation to a LPS standard (standard curve). The results are expressed in EU (Endotoxin Unit) in relation to a standardized preparation of E. coli LPS (1 EU corresponds to 0.08 ng equivalent LPS).

human CD4+ T cells = assay: Cytokine production and proliferation of naïve CD4+ T cells stimulated with anti-CD3 and anti-CD28; assay type: cell-based; conditions: 0.02-20 μg/ml; for IFN-γ production by CD4+ T cells / IL-13 production by CD4+ T cells: 6 days, ELISA
Method: A series of four compounds of the present invention (OM-197-MP-AC, OM-197-MC-HD, OM-294-BA-MP, OM-197-MP-HD) were tested directly as summarized below:
Naïve CD4^+ T cells were magnetically sorted from healthy blood donor (buffy coat). The cells were stimulated in the presence or not of graded doses of triacyl derivatives (0.02; 0.2; 2 and 20 μg/ml) using plate-bound anti-CD3 (5 μg/ml) and soluble anti-CD28 (1 μg/ml). After 6 days, cytokine levels (IFN-γ and IL-13) were tested in the culture supernatants using ELISA.
FIGS. 3A-3D: Effect of increasing doses of the four compounds tested (OM-197-MP-AC, n=5; OM-197-MC-HD, n=5; OM-294-BA-MP, n=7; OM-197-MP-HD, n=3) on IFN-γ and IL-13 production of human CD4^+ T cells following a polyclonal activation. Results are expressed as the median (±p25/p75) of n independent experiments and show the percentage (%) proliferation or cytokine production of treated cells versus untreated cells (considered as 100%, see dotted line). The statistical analysis was performed using a nonparametric unpaired Mann-Whitney t test (2-tailed).

Structure (SMILES) | LPS-induced production of IL-10 (murine DC cells) | LPS-induced production of IL-12 (murine DC cells) | LPS-induced production of TNF-α (murine DC cells) | Limulus activity in the chromogenic LAL assay [1] | T cell proliferation (human CD4+ T cells) | IFN-γ production by CD4+ T cells (human CD4+ T cells) | IL-13 production by CD4+ T cells (human CD4+ T cells)
CCCCCCCCCCCC(=O)O[C@H](CCCCCCCCCCC)CC(=O)N[C@@H](CCOP(=O)(O)O)C(=O)NCCC[C@H](COP(=O)(O)O)NC(=O)C[C@H](O)CCCCCCCCCCC [OM-294-DP] | increase | decrease | decrease | very little or no Limulus activity |  |  | 
CCCCCCCCCCCC(=O)O[C@H](CCCCCCCCCCC)CC(=O)N[C@@H](CC(=O)O)C(=O)NCCC[C@H](COC(=O)CCCCC(O)CO)NC(=O)C[C@H](O)CCCCCCCCCCC (stereo partly drawn) [OM-197-MC-HD, N-[(R)-3-dodecanoyloxytetradecanoylamino]-L-aspartic acid, α-N-{(4R)-5-hydroxy-4-[(R)-3-hydroxytetradecanoylamino]pentyl}amide 5-O-(6,7-dihydroxyheptanoate)] |  |  |  |  | unaffected | unaffected | reduced
CCCCCCCCCCCC(=O)O[C@H](CCCCCCCCCCC)CC(=O)N[C@@H](CCOP(=O)(O)O)C(=O)NCCC[C@H](COC(=O)CCCCC(O)CO)NC(=O)C[C@H](O)CCCCCCCCCCC (stereo partly drawn) [OM-197-MP-HD, (3S, 9R)-3-[(R)-3-dodecanoyloxytetradecanoylamino]-4-oxo-5-aza-9-[(R)-3-hydroxytetradecanoylamino]-decan-1, 10-diol 1-dihydrogenophosphate 10-(6,7-dihydroxyheptanoate)] |  |  |  |  | unaffected | unaffected | reduced
CCCCCCCCCCCC(=O)O[C@H](CCCCCCCCCCC)CC(=O)N[C@@H](CCCCN)C(=O)NCCC[C@H](COP(=O)(O)O)NC(=O)C[C@H](O)CCCCCCCCCCC [OM-294-BA-MP, (5S,11R)-1-Amino-5-[(R)-3-dodecanoyloxytetradecanoylamino]-6-oxo-7-aza-11-[(R)-3-hydroxytetradecanoylamino]-dodecan-12-ol 12-dihydrogenophosphate] |  |  |  |  | unaffected | unaffected | reduced

Reference: patent publication US8618080B2, “Immunomodulatory compounds and treatment of diseases related to an overproduction of inflammatory cytokines” (OM Pharma, priority 2006, dated 2013)
